This note sets out measurements from patent US20020016358A1, “Cosmetic composition” (NOF CORPORATION, priority 2000, published 2002).

Assay [1] deals with human melanoma cell (HM3KO). Briefly: Suppression of melanin formation in human melanoma cell (HM3KO). Format: cell-based. To be noted: sample 10 μM in medium, cultivation 6 days, absorbance 410 nm of cell lysate, no addition = 100%. Here is the method: (Confirmation of Whitening Effect-1: Suppression of Melanin Formation) Using the obtained compounds of formulae (II) to (V), the effect of suppressing melanin production of human melanoma cell (HM3KO) was examined in vitro. More specifically, HM3KO was cultured to about 5×10^5 by a conventional method, collected by centrifugation to obtain pellets, and inoculated the pellet to a culture dish of 10 cm diameter containing an Eagle's medium supplemented with 10% fetal bovine serum and cultured at 37° C. for 24 hours. Thereafter, each polymethoxyflavone of formulae (II) to (V) was added, or kojic acid or arbutin for comparison was added thereto so that the final addition concentration was 10 μM, followed by cultivation for 6 days. After the cultivation, cells were collected by centrifugation, and 1 ml of 2N sodium hydroxide aqueous solution was added thereto to obtain cell lysate. The absorbance in a wavelength of 410 nm of the cell lysate was measured with a spectrophotometer. Here, the absorbance of the cell lysate to which a sample is not added is defined as 100% of the melanin production ratio, and the melanin production ratios are shown as relative values, measuring the absorbance of each cell lysate.

Assay [2] relates to UV-induced pigmentation. The experiment in a line: Suppression of UV-induced pigmentation in brown guinea pigs. Format: in vivo. To be noted: 40 μl twice a day, after UV 0.5 J/cm2; for Pigmentation degree ΔL, After 40 days: no addition −5.2; for Pigmentation degree ΔL, After 20 days: no addition −7.8. Here is the method:
(Confirmation of Whitening Effect-2: Suppression of UV-induced Pigmentation)
Using brown guinea pigs, the suppression of UV-induced pigmentation was examined in vivo. More specifically, the backs of the brown guinea pigs were shaved and covered with an ultraviolet shielding plate provided with 6 rectangular holes of 2×2 cm, followed by irradiation of UV (0.5 J/cm^2) to induce pigmentation. Thereafter, 40 μl of 70% (W/W) ethanol aqueous solution containing each of polymethoxyflavone (nobiletin) of formula (III) or polymethoxyflavone (tangeretin) of formula (IV) in a concentration shown in Table 2 were applied twice a day. Then, the degrees of pigmentation before and after the application were measured.
In Table 2, the pigmentation degree ΔL was obtained by measuring a L value before UV irradiation, which is defined as 0, with a spectrophotometric calorimeter, and obtaining the difference between the L values before and after UV irradiation. A lower value ΔL corresponds to a higher pigmentation degree.

The mark [3] stands for this setting: sample concentration 0.4% in 70% ethanol.
Where [4] appears, read: sample concentration 4% in 70% ethanol, lower ΔL = more pigmentation.
Setting [5] is: sample concentration 4% in 70% ethanol.

As for `COc1ccc(-c2oc3c(OC)c(OC)c(OC)c(OC)c3c(=O)c2OC)cc1OC` [formula (II), 3,5,6,7,8,3′,4′-heptamethoxyflavone], the “Melanin production ratio (% of control)” value in assay [1] is reported as 65 % of control.
Still for that read-out and setting: as for `COc1ccc(-c2cc(=O)c3c(OC)cc(OC)c(OC)c3o2)cc1OC` [formula (V), 5,7,8,3′,4′-pentamethoxyflavone], the figure is 60 % of control.
Regarding `COc1ccc(-c2cc(=O)c3c(OC)c(OC)c(OC)c(OC)c3o2)cc1` [formula (IV), 5,6,7,8,4′-pentamethoxyflavone], the “Melanin production ratio (% of control)” value in assay [1] is on record as 55 % of control. For the same compound, the “Pigmentation degree ΔL, After 40 days” value in assay [2] (setting [3]) was −3.5; in assay [2] (setting [5]), −3.3. The “Pigmentation degree ΔL, After 20 days” value is −6.1 in assay [2] (setting [3]) and −5.6 in assay [2] (setting [4]).
As to `COc1ccc(-c2cc(=O)c3c(OC)c(OC)c(OC)c(OC)c3o2)cc1OC` [formula (III), 5,6,7,8,3′,4′-hexamethoxyflavone], the “Melanin production ratio (% of control)” value in assay [1] is on record as 35 % of control. Besides, the results for the “Pigmentation degree ΔL, After 40 days” value in assay [2] (setting [3]) and in assay [2] (setting [5]) were −3.2 and −1.9, respectively. Also, the “Pigmentation degree ΔL, After 20 days” value was −5.5 in assay [2] (setting [3]) and −5.1 in assay [2] (setting [4]).
With `OC[C@H]1O[C@@H](Oc2ccc(O)cc2)[C@H](O)[C@@H](O)[C@@H]1O` [Arbutin, reference compound], in assay [1], the “Melanin production ratio (% of control)” value was 97 % of control.
For `O=c1cc(CO)occ1O` [Kojic acid, reference compound], the “Melanin production ratio (% of control)” value in assay [1] is 96 % of control.
